Literature values in paper PMC5189927 (Molecular Psychiatry, 2014).
Counter-ions that a name gives are not always drawn.

What was measured:
[1] = tested on: glucocerebrosidase; conditions: healthy volunteers
[2] = tested on: glucocerebrosidase
[3] = tested on: α-galactosidase A; conditions: healthy volunteers
[4] = tested on: α-galactosidase A; conditions: Fabry patients with amenable mutations, phase 3, 12 months of treatment
[5] = tested on: β-hex A; conditions: phase 1/2, Tay–Sachs and Sandhoff patients

Compound: OC[C@H]1CNC[C@@H](O)[C@@H]1O [isofagomine, isofagomine tartrate]
- Increase in wild-type glucocerebrosidase levels [1]: two- to threefold
- Glucocerebrosidase levels in peripheral blood mononuclear cells ([2]; healthy volunteers (phase 1) and type I Gaucher patients (phase 2)): significantly increased
- Gaucher patients with clinically meaningful end points ([2]; phase 2, doses and dosing regimens assessed): 1 of 18

Compound: OC[C@H]1NC[C@H](O)[C@@H](O)[C@H]1O [migalastat, deoxygalactonojirimycin hydrochloride]
- Increase in wild-type α-galactosidase A levels [3]: two- to threefold
- Levels of kidney interstitial capillary GL-3 [4]: statistically significant reduction

Compound: CCc1nc(N)nc(N)c1-c1ccc(Cl)cc1 [pyrimethamine, Pyrimethamine]
- Side effects [5]: severe side effects
- β-hex A levels in patients [5]: increased β-hex A levels for all eight patients
